From patent publication EP4653435A1, “PRMT5-MTA INHIBITOR” (Suzhou Puhe Biopharma Co., Ltd., priority 2023, dated 2024)
Where two headings read alike, the source gives them in different places.

Assays:
HCT116-MTAPwt = test: 2D antiproliferative assay (CTG cell viability), wild-type cells; type: cell-based; conditions: Homo sapiens, HCT-116, 7-10 days
Protocol: (§1) HCT116 wild-type and MTAP-deficient cells were cultured in McCoy's 5A medium containing 10% FBS and 1% penicillin-streptomycin, and cultured in a 37°C, 5% CO2 constant temperature incubator. 40 µL of cell suspension was introduced into each well of a 384-well microplate. 40 nL of different concentrations of test compounds were added to each well using an Echo, before culturing in a 37°C, 5% CO2 constant temperature incubator for 7-10 days. 40 µL of CTG solution (Promega, Cat No. G7573) was added to each well and incubated in a 37°C, 5% CO2 constant temperature incubator for 30 minutes in the dark.

HCT116-MTAPdel = test: 2D antiproliferative assay (CTG cell viability), MTAP-deficient cells; type: cell-based; conditions: for IC50: Homo sapiens; for HCT116WT IMTAPdel selectivity: ratio IC50 wild type / MTAPdel, antiproliferation
Protocol: as §1

[1] = HCT-116, HCT116 MTAP-deficient cells, 7-10 days, CTG, read-out: HCT116-MTAPdel/IC50/nM

Structure (SMILES)	IC50 (HCT116-MTAPwt) [nM]	IC50 (HCT116-MTAPdel; [1]) [nM]	HCT116WT IMTAPdel selectivity (HCT116-MTAPdel)	IC50 (HCT116-MTAPdel; HCT-116, read-out: HCT116-MTAPdel/IC50/nM) [nM]
Cc1nc2cc(C3CCC(C)CN3C(=O)C(=O)Nc3cnc(N)c4c3cnn4C)ccc2s1 (racemic) [Compound P10]	800	10	80	
C[C@H]1COC[C@@H](c2ccc(OC(F)(F)F)cc2)N1C(=O)C(=O)Nc1cnc(N)c2c1cnn2C (racemic) [Compound P12]	607	5	121	
C[C@H]1CC[C@H](c2ccc3sc(CN(C)C)nc3c2)N(C(=O)C(=O)Nc2cnc(N)c3c2cnn3C)C1 (racemic) [Compound P14]	295	11	27	
C[C@H]1CC[C@H](c2ccc3sc(C(F)(F)F)nc3c2)N(C(=O)C(=O)Nc2cnc(N)c3c2cnn3C)C1 (racemic) [Compound P16]	891	11	81	
C[C@H]1CC[C@H](c2ccc3sc(-c4cccnc4)nc3c2)N(C(=O)C(=O)Nc2cnc(N)c3c2cnn3C)C1 (racemic) [Compound P17]	606	8	76	
C[C@H]1CC[C@H](c2ccc3sc(C4CCOCC4)nc3c2)N(C(=O)C(=O)Nc2cnc(N)c3c2cnn3C)C1 (racemic) [Compound P18]	900	14	64	
Cn1ncc2c(NC(=O)C(=O)NC3COc4cc(C(F)(F)F)ccc43)cnc(N)c21 (stereo not shown) [Compound A1, reference compound]	> 10000	> 10000		
CN(C(=O)C(=O)Nc1cnc(N)c2c1cnn2C)[C@@H]1COc2cc(-c3cncc(Cl)c3)ccc21 [Compound H1a]	2320	9	258	
CN(C(=O)C(=O)Nc1cnc(N)c2c1cnn2C)[C@H]1COc2cc(-c3cncc(Cl)c3)ccc21 [Compound H1b]	> 10000	300	>33	
CN(C(=O)C(=O)Nc1cnc(N)c2c1cnn2C)[C@H]1COCc2nc(-c3cncc(Cl)c3)ccc21 [Compound H2a]	> 10000	224	>45	
CN(C(=O)C(=O)Nc1cnc(N)c2c1cnn2C)[C@H]1COc2cc(C(F)(F)F)ccc21 [Compound P2b]	> 10000	118	85	
C[C@@H]1CC[C@@H](c2ccc3scnc3c2)N(C(=O)C(=O)Nc2cnc(N)c3c2cnn3C)C1 [Compound P3a]	> 10000			666
C[C@H](c1ncccn1)N(Cc1ccc(C(F)(F)F)cn1)C(=O)C(=O)Nc1cnc(N)c2cnn(C)c12 [Compound P4]	> 10000	813	>12	
CCn1ncc2c(NC(=O)C(=O)N(Cc3ccc(C(F)(F)F)cn3)[C@H](C)c3ncccn3)cnc(N)c21 [Compound P6]	1300	18	72	
C[C@H](c1ncccn1)N(Cc1ccc(C(F)(F)F)cn1)C(=O)C(=O)Nc1cnc(N)c2c1cnn2C1CC1 [Compound P7]	2520	56	45	
C[C@H](c1ncccn1)N(Cc1ccc(-c2cncc(Cl)c2)cn1)C(=O)C(=O)Nc1cnc(N)c2c1cnn2C [Compound P8]	161	4	40	
CN(C(=O)C(=O)Nc1cnc(N)c2c1cnn2C)[C@H]1COCc2nc(C(F)(F)F)ccc21 [Compound P9b]	> 10000	883	>11	
C[C@H]1COC[C@@H](c2ccc(C(F)(F)F)cn2)N1C(=O)C(=O)Nc1cnc(N)c2c1cnn2C [Compound P11a]	> 10000	1910	>5	
C[C@@H]1COC[C@H](c2ccc(C(F)(F)F)cn2)N1C(=O)C(=O)Nc1cnc(N)c2c1cnn2C [Compound P11b]	427	8	53	
